Reference: patent publication US20190111149A1, “ANTI-EGFR ANTIBODY DRUG CONJUGATE” (priority 2016, published 2019)
Bridge positions count the residues as written; N and C are the ends. Square brackets hold non-standard residues; d marks the D form. Ends that are not written are not given here. azido‑Phe = azido-phenylalanine, photoactivatable residue; Abu(3-Me-diazirin-3-yl) = CC1(CC[C@H](N)C(=O)O)N=N1; Bpa = N[C@@H](Cc1ccc(C(=O)c2ccccc2)cc1)C(=O)O

Target: Meditope enabled Trastuzumab
Assay: BLI binding kinetics of meditope peptides to Meditope enabled Trastuzumab
Procedure: The binding kinetics of photo enabled meditopes to antibodies (e.g., meditope enabled Trastuzumab, T-mab, and P-mab) was tested.

Chain of Meditope enabled Trastuzumab (as listed by the source): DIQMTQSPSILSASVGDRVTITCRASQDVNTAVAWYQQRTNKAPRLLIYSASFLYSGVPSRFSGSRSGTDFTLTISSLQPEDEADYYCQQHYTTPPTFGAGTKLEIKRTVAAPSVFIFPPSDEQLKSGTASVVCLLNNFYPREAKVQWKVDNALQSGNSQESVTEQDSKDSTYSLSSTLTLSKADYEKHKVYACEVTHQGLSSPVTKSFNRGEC
Chain of Meditope enabled Trastuzumab (as listed by the source): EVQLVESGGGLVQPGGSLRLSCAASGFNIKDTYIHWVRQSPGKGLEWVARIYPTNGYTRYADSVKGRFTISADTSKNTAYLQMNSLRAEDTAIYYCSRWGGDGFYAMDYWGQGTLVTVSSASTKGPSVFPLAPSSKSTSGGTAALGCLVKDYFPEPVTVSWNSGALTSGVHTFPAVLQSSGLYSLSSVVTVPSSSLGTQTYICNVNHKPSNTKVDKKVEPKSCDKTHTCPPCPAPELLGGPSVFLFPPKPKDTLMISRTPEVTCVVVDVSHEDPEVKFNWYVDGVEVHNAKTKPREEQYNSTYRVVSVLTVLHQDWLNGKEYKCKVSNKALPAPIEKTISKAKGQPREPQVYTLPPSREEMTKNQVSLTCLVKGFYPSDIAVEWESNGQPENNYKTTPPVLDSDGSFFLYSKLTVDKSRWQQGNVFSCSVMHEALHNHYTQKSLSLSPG

Substance	Kd (Conc. 50 nM) [nM]	Kd (Conc. 100 nM) [nM]	kon (Conc. 100 nM) [M⁻¹ s⁻¹]	Kd (Conc. 200 nM) [nM]	kon (Conc. 50 nM) [M⁻¹ s⁻¹]	kon (Conc. 200 nM) [M⁻¹ s⁻¹]
Peptide 6: MMAD conjugated photoactivatable long cQFD photo-Met 9 (CQFDLSTR[Abu(3-Me-diazirin-3-yl)]LRCGGGK; disulfide 1-12 (inferred); also: MMAD conjugated)	< 0.001	2.51	3.65e+06	0.0191	–	–
Peptide 10: MMAD conjugated photoactivatable long cQFD azido-Phe 3 (CQ[azido‑Phe]DLSTRRLRCGGGK; disulfide 1-12 (inferred); also: MMAD conjugated)	< 0.001	18100	266	30200	816	537
Peptide 12: MMAD conjugated photoactivatable long cQFD benzoyl-Phe 3 (CQ[Bpa]DLSTRRLRCGGGK; disulfide 1-12 (inferred); also: MMAD conjugated)	< 0.001	1.22	9.47e+06	73.3	–	286000
